Tests used:
Botrytis cinerea = Botrytis cinerea radial growth bioassay with volatile compounds, no direct contact; type: cell-based; settings: for effect on B.c. radial growth: pure compound 6, 30 and 61 μL, four strains, PDA
Description: PHBV and PEA microparticle synthesis was done by double emulsion/evaporation. Experimentally, 15 mg of PEA were added to 50 mg/mL PHBV solution in dichloromethane, and then 30 μL of distilled water. This mixture was emulsified with a homogenizer at 35,000 rpm during 30 seconds. To this emulsion, a 5% w/v polyvinyl alcohol was added, and it was homogenized at 35.000 rpm for 30 seconds. The result of this double emulsion was put in an orbital shaker for 12 hours at 100 rpm. Once the solvent evaporated, the microparticles were isolated by centrifugation, washed with distilled water and lyophilized. Subsequently, the assays described below were done.
The experimental model consisted in testing in vitro both the pure and microencapsulated phenylethylalcohol (PEA) volatile compound effect in B.c. The reporting parameter was radial growth and the volatile compound doses were determined with in vitro assays (bioassays). To do this, four different Botrytis strains were exposed to the pure compound, but without direct contact between compound and microorganism.
Bioassays were done in hermetic containers during 6 days at 4° C. (simulating storage conditions). It was previously determined that, for all the strains in study, they were able to cover almost completely the maximum container area (33 mm diameter), in 6 days. The hermetic container was assembled in such a way that there is no physical contact between the evaluated compounds and B.c, in any circumstances.
Radial growth was quantified in three independent experimental groups, which were assayed using potato dextrose agar (PDA) as nutritive support and, after the established culture conditions, initial inoculum growth diameter was determined as 7 mm (disk with actively growing B.c. using PDA as support). The first group was assayed in the container, in absence of a volatile compound and was used as control group (n=4). The second group was assayed challenging the B.c. inoculum with different PEA quantities (6, 30 y 61 μL), separately, with the same culture conditions (n=4). Finally, the third group was assayed like the second group, but with PHBV microencapsulated PEA in defined concentrations (n=2).

Botrytis cinerea spores = assay: Botrytis cinerea spore (conidia) germination assay; type: cell-based; settings: pure PEA; 14 hours at 4° C.; absorbance 570 nm
Description: In this point, the PEA volatile compound effect was tested in B.c. spores germination. The assay consisted in inoculate B.c. spores in 100 μL of malt yeast nutritive media (ML, 0.3% malt and 0.2% yeast extract), using 40 μL of a B.c. spore suspension with a 10^5 spores/mL concentration. Resuspended spores in ML media were transferred to sterile multiwall plates (140 μL/well) and then these plates were put in a hermetic and sealed container during a definite time, in dark and at 4° C. The necessary time to detect maximum germination was experimentally determined by conducting a germination kinetic assay for each B.c. strain. Measurements were done every 2 hours up until 16 hours, thus finding the maximum germination between 14 and 16 hours. The methodology used in the laboratory consisted in a spore fixation/staining process in each well, using trichloroacetic acid and sulphododamyne B, that allowed for a direct correlation between the obtained absorbance values (at 570 nm) with germinated spore number. The first experimental group was assayed without volatile compounds and was used as control (n=4), the experiment was done in sealed hermetic containers at 4° C. for 14 hours (100% of spore germination).

OCCc1ccccc1 [PEA, phenylethylalcohol]
effect on B.c. radial growth, statistics (ANOVA, TUKEY, p<0.05) (Botrytis cinerea; 30 and 61 μL doses, all strains, 6 days at 4° C.): statistically significant effect in all of the strains | B.c. growth at higher doses (Botrytis cinerea; doses higher than 61 μL, 6 days): not a measurable growth after 6 days | effect on B.c. radial growth (Botrytis cinerea; 6 days at 4° C.): has an inhibiting effect in all the assayed B.c. strains | effect on Botrytis conidia germination (Botrytis cinerea spores): does not inhibit Botrytis conidia germination in the same way that it inhibited micellium growth

CCCCCC1CCCC(=O)O1 (stereo not drawn) [d-Lac, delta-decalactone]
effect on B.c. radial growth (Botrytis cinerea; 6 days at 4° C.): does not present a statistically significative effect
